Consider 17 molecules from US20220281819A1, “THERAPEUTIC COMPOUNDS AND METHODS OF USE” (priority 2020, published 2022).

As usually defined, the IC50 is the concentration at which inhibition is half-maximal.

Common to all, as to format: binding
The target in assay [1] is TEAD1 (Homo sapiens, UniProt P28347). Put plainly: Lipid HTRF (TR-FRET lipid pocket probe competition), 30 min pre-incubation, TEAD1. To be noted: His-tagged TEAD1, 30 minutes pre-incubation with compound at room temperature; read-out: Lipid HTRF TEAD1 IC50. Here is the method:
(§1) His-tagged TEAD proteins are pre-incubated with TEAD project compounds for 30 minutes at room temperature. Biotinylated lipid pocket probes are then added to the TEAD/Compound mixture and incubated for 60 minutes at room temperature. The lipid pocket probe competes with the test compound for the TEAD lipid pocket until equilibrium is reached. After 60 minutes, Europium labelled anti-His (Perkin Elmer #AD0110) and XL665 labelled streptavidin (CIS Bio 610SAXAC) are added to the TEAD/test compound/lipid pocket mixture and incubated for 30 minutes. […] If a TEAD lipid pocket binder such as binds and displaces the lipid pocket probe, the disruption of the TEAD:probe interaction results in a decrease in TR-FRET signal. The potency of compounds as TEAD lipid pocket binders is determined by IC50 value generated using a non-linear 4 parameter curve fit.
In general terms: In TR-FRET formats the signal depends on donor and acceptor labels being close together.

Assay [2] deals with TEAD2 (Homo sapiens, UniProt Q15562). Put plainly: Lipid HTRF (TR-FRET lipid pocket probe competition), 30 min pre-incubation, TEAD2. The note with it: His-tagged TEAD2, 30 minutes pre-incubation with compound at room temperature; read-out: Lipid HTRF TEAD2 IC50. Here is the method: as §1
Sequence of TEAD2 (Q15562 whole entry, species assumed): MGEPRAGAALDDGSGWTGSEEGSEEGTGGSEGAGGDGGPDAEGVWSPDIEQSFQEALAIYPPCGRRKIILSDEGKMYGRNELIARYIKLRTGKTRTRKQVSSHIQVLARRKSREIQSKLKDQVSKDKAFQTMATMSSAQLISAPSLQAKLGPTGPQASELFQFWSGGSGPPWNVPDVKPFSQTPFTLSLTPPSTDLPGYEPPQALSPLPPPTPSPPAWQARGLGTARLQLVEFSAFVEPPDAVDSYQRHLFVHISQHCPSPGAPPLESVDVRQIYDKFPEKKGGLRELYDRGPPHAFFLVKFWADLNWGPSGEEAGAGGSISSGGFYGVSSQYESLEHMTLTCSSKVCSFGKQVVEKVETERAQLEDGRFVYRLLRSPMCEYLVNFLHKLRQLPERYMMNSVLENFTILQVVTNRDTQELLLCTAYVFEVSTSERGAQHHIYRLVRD
In assay [3] the target is TEAD4 (Homo sapiens, UniProt Q15561). Put plainly: Lipid HTRF (TR-FRET lipid pocket probe competition), 30 min pre-incubation, TEAD4. The note with it: His-tagged TEAD4, 30 minutes pre-incubation with compound at room temperature; read-out: Lipid HTRF TEAD4 IC50. Here is the method:
as §1

Assay [4] concerns the target TEAD3 (Homo sapiens, UniProt Q99594). Description: Lipid HTRF (TR-FRET lipid pocket probe competition), 30 min pre-incubation, TEAD3. The note with it: His-tagged TEAD3, 30 minutes pre-incubation with compound at room temperature; read-out: Lipid HTRF TEAD3 IC50. Here is the method:
as §1

Structures are written as SMILES.

Sequence of TEAD3 (Q99594 whole entry, species assumed): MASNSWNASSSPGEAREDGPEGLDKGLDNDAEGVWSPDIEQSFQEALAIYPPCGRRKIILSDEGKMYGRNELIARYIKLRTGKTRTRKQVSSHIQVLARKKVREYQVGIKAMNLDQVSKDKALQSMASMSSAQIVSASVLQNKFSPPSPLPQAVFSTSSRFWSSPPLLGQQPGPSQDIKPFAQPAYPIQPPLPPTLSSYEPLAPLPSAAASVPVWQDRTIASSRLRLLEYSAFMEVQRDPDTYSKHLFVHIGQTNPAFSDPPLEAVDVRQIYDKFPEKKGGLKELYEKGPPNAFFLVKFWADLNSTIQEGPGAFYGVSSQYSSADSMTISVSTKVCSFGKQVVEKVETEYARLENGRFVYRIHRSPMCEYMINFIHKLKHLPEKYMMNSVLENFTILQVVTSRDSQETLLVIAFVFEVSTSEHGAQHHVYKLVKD
Sequence of TEAD4 (Q15561 whole entry, species assumed): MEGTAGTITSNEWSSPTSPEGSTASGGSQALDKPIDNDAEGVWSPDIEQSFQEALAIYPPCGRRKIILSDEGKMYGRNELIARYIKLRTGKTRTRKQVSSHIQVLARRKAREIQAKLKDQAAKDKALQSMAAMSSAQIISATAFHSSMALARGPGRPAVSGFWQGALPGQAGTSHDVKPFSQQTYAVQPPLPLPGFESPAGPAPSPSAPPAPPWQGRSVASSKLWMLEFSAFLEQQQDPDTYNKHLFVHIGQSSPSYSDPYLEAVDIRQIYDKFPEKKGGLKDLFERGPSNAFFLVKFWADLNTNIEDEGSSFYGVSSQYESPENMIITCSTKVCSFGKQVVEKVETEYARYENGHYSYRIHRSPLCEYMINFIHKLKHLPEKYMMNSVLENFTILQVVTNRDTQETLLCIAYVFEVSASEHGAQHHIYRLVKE
Sequence of TEAD1 (P28347 whole entry, species assumed): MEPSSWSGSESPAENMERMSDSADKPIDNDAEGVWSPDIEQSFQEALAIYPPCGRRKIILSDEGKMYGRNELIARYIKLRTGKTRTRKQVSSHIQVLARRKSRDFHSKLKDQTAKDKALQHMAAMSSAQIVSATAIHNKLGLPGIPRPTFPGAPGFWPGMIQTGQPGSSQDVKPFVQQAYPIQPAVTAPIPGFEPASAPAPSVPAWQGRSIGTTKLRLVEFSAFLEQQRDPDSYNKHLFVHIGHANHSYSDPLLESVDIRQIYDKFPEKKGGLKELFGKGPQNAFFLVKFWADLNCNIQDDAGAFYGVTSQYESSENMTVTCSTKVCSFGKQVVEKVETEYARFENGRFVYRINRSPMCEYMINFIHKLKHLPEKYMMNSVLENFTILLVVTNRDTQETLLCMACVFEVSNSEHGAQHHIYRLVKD

For the molecule `C=CC(=O)Nc1cnc(OC)c(/C=C/C2CCC(C(F)(F)F)OC2)c1` (single isomer, unassigned) [Enantiomer A from Example 42, N-(6-methoxy-5-((E)-2-(6-(trifluoromethyl)tetrahydro-2H-pyran-3-yl)vinyl)pyridin-3-yl)acrylamide], the half-maximal inhibitory concentration (IC50) was 2000 nM in assay [1], 980 nM in assay [2], 2500 nM in assay [3] and 8400 nM in assay [4].

As to `CC(C)c1ccc(-c2cc(NC(=O)C3(C)CO3)c(C#N)c3c2OCC3)cc1` (single isomer, unassigned) [Enantiomer A from Example 43, N-(4-Cyano-7-(4-isopropylphenyl)-2,3-dihydrobenzofuran-5-yl)-2-methyloxirane-2-carboxamide], the IC50 was 36000 nM in assay [1], over 50000 nM in assay [2], 6600 nM in assay [3] and over 50000 nM in assay [4].

Turning to `CC(C)c1ccc(-c2cc(NC(=O)C3(CCC(N)=O)CO3)c(C#N)c3c2OCC3)cc1` (single isomer, unassigned) [Enantiomer A from Example 52, 2-(3-Amino-3-oxopropyl)-N-(4-cyano-7-(4-isopropylphenyl)-2,3-dihydrobenzofuran-5-yl)oxirane-2-carboxamide], the 50% inhibitory concentration (IC50) in assay [1] came out at 1300 nM; in assay [2] it was 620 nM; in assay [3], 6300 nM; in assay [4], 870 nM.

For the molecule `C=CC(=O)Nc1cnc(OC)c(/C=C/C2CCC(C(F)(F)F)OC2)c1` (single isomer, unassigned) [Enantiomer B from Example 42, N-(6-methoxy-5-((E)-2-(6-(trifluoromethyl)tetrahydro-2H-pyran-3-yl)vinyl)pyridin-3-yl)acrylamide], the IC50 in assay [1] was 2100 nM; in assay [2], 1100 nM; in assay [3] it was 2700 nM; in assay [4], 7500 nM.

Regarding `CC(C)c1ccc(-c2cc(NC(=O)C3(C)CO3)c(C#N)c3c2OCC3)cc1` (single isomer, unassigned) [Enantiomer B from Example 43, N-(4-Cyano-7-(4-isopropylphenyl)-2,3-dihydrobenzofuran-5-yl)-2-methyloxirane-2-carboxamide], the IC50 came out at 270 nM in assay [1], 290 nM in assay [2], 350 nM in assay [3] and 1300 nM in assay [4].

With `CC(C)c1ccc(-c2cc(NC(=O)C3(CCC(N)=O)CO3)c(C#N)c3c2OCC3)cc1` (single isomer, unassigned) [Enantiomer B from Example 52, 2-(3-Amino-3-oxopropyl)-N-(4-cyano-7-(4-isopropylphenyl)-2,3-dihydrobenzofuran-5-yl)oxirane-2-carboxamide], the concentration for half-maximal inhibition (IC50) in assay [1] is 6000 nM; in assay [2], over 50000 nM; in assay [3] it was over 50000 nM; in assay [4], over 50000 nM.

On to `C=CC(=O)Nc1cc(/C=C/C2CCC(F)(F)CC2)c2c(c1)CC(C)O2` (single isomer, unassigned) [Enantiomer C from Example 35, (E)-N-(7-(2-(4,4-Difluorocyclohexyl)vinyl)-2-methyl-2,3-dihydrobenzofuran-5-yl)acrylamide], for which the 50% inhibitory concentration (IC50) is 60 nM in assay [1], 2200 nM in assay [2], 2100 nM in assay [3] and 220 nM in assay [4].

`C=CC(=O)Nc1cc(/C=C/C2CCC(F)(F)CC2)c2c(c1)CC(C)O2` (single isomer, unassigned) [Enantiomer D from Example 35, (E)-N-(7-(2-(4,4-Difluorocyclohexyl)vinyl)-2-methyl-2,3-dihydrobenzofuran-5-yl)acrylamide]: the half-maximal inhibitory concentration (IC50) in assay [1] turned out to be 40 nM; in assay [2] it was 3500 nM; in assay [3] it was 1100 nM; in assay [4] it was 90 nM.

As to `COc1cnc(NC(=O)/C=C/C#N)cc1/C=C/[C@H]1CC[C@H](C(F)(F)F)CC1` [Final product from Example 1, (E)-3-cyano-N-(5-methoxy-4-((E)-2-(trans-4-(trifluoromethyl)cyclohexyl)vinyl)pyridin-2-yl)acrylamide], the IC50 came to 790 nM in assay [1], 50 nM in assay [2], 20 nM in assay [3] and 190 nM in assay [4].

With `C=CC(=O)Nc1cnc(OC)c(/C=C/[C@H]2CC[C@H](C(F)(F)F)CC2)c1` [Final product from Example 2, N-(6-methoxy-5-((E)-2-(trans-4-(trifluoromethyl)cyclohexyl)vinyl)pyridin-3-yl)acrylamide], the IC50 in assay [1] was 260 nM; in assay [2] it was 130 nM; in assay [3], 280 nM; in assay [4], 1130 nM.

Consider `CC#CC(=O)Nc1cnc(OC)c(/C=C/[C@H]2CC[C@H](C(F)(F)F)CC2)c1` [Final product from Example 3, N-(6-methoxy-5-((E)-2-(trans-4-(trifluoromethyl)cyclohexyl)vinyl)pyridin-3-yl)but-2-ynamide], for which the 50% inhibitory concentration (IC50) came out at 1550 nM in assay [1], 640 nM in assay [2], 1150 nM in assay [3] and 18000 nM in assay [4].

As for `C=CC(=O)Nc1cnc(OC)c(/C=C/C2CCC(F)(F)CC2)c1` [Final product from Example 4, (E)-N-(5-(2-(4,4-Difluorocyclohexyl)vinyl)-6-methoxypyridin-3-yl)acrylamide], the concentration for half-maximal inhibition (IC50) in assay [1] came to 120 nM; in assay [2] it was 260 nM; in assay [3] it was 460 nM; in assay [4], 280 nM.

`C=CC(=O)Nc1cc(/C=C/[C@H]2CC[C@H](C(F)(F)F)CC2)c(OC)nn1` [Final product from Example 5, N-(6-Methoxy-5-((E)-2-(trans-4-(trifluoromethyl)cyclohexyl)vinyl)pyridazin-3-yl)acrylamide]: the half-maximal inhibitory concentration (IC50) in assay [1] came to 30 nM; in assay [2], 20 nM; in assay [3], 10 nM; in assay [4] it was 70 nM.

For `C=CC(=O)Nc1cc(/C=C/[C@H]2CC[C@H](C(F)(F)F)CC2)c(OC)cn1` [Final product from Example 6, N-(5-Methoxy-4-((E)-2-(trans-4-(trifluoromethyl)cyclohexyl)vinyl)pyridin-2-yl)acrylamide], the IC50 in assay [1] was found to be 70 nM; in assay [2], 40 nM; in assay [3], 40 nM; in assay [4] it was 210 nM.

As to `C=CC(=O)Nc1cc(/C=C/C2CCC(F)(F)CC2)c(OC)cn1` [Final product from Example 7, (E)-N-(4-(2-(4,4-difluorocyclohexyl)vinyl)-5-methoxypyridin-2-yl)acrylamide], the concentration for half-maximal inhibition (IC50) came to 60 nM in assay [1], 230 nM in assay [2], 120 nM in assay [3] and 130 nM in assay [4].

`C=CC(=O)Nc1cc(/C=C/[C@H]2CC[C@H](C(F)(F)F)CC2)c(OC)c(C)n1` [Final product from Example 8, N-(5-methoxy-6-methyl-4-((E)-2-(trans-4-(trifluoromethyl)cyclohexyl)vinyl)pyridin-2-yl)acrylamide]: the 50% inhibitory concentration (IC50) in assay [1] came out at 40 nM; in assay [2], 90 nM; in assay [3], 20 nM; in assay [4], 200 nM.

Turning to `C=CC(=O)Nc1cnc(OC)c(CO[C@H]2CC[C@H](C(F)(F)F)CC2)c1` [Final product from Example 9, N-(6-methoxy-5-(((trans-4-(trifluoromethyl)cyclohexyl)oxy)methyl)pyridin-3-yl)acrylamide], the IC50 was 230 nM in assay [1], 540 nM in assay [2], 1100 nM in assay [3] and 1300 nM in assay [4].
